In ChEMBL document CHEMBL3045760, “Bioactive xanthones with effect on P-glycoprotein and prediction of intestinal absorption” (Med Chem Res, 2013):
Activity calls are given as the source filed them. No cut-off for these calls is given here.

Assays:
[1] = target: T1, ATP-dependent translocase ABCB1 (Homo sapiens, UniProt P08183); assay: Inhibition of P-glycoprotein in doxorubicin-resistant Homo sapiens (human) K562 cells overexpressing P-gp assessed as increase in intracellular Rh123 accumulation at 10 to 20 uM after 1 hr by flow cytometric analysis; type: cell-based; conditions: k562, 1 h
[2] = (§1) Drug recovery in Homo sapiens (human) Caco2 cells at 100 uM by HPLC-UV analysis; type: ADME, cell-based, Caco-2; conditions: Caco-2, read-out: Drug recovery
Homo sapiens = species: Homo sapiens; assay: Non-competitive inhibition of Homo sapiens (human) P-glycoprotein ATPase activity at 200 uM after 40 min by luminescence analysis
[3] = Apparent permeability from apical to basolateral side of Homo sapiens (human) Caco2 cells at 100 uM by HPLC-UV analysis; type: ADME, cell-based; conditions: Caco-2
[4] = target: T1, ATP-dependent translocase ABCB1; assay: Activation of P-glycoprotein in doxorubicin-resistant Homo sapiens (human) K562 cells overexpressing P-gp assessed as decrease in intracellular Rh123 accumulation at 10 to 20 uM after 1 hr by flow cytometric analysis; type: cell-based; conditions: k562, 1 h
Caco-2 = assay: as §1; type: ADME, cell-based; conditions: caco-2, 100 µM

T1 sequence (P08183 whole entry): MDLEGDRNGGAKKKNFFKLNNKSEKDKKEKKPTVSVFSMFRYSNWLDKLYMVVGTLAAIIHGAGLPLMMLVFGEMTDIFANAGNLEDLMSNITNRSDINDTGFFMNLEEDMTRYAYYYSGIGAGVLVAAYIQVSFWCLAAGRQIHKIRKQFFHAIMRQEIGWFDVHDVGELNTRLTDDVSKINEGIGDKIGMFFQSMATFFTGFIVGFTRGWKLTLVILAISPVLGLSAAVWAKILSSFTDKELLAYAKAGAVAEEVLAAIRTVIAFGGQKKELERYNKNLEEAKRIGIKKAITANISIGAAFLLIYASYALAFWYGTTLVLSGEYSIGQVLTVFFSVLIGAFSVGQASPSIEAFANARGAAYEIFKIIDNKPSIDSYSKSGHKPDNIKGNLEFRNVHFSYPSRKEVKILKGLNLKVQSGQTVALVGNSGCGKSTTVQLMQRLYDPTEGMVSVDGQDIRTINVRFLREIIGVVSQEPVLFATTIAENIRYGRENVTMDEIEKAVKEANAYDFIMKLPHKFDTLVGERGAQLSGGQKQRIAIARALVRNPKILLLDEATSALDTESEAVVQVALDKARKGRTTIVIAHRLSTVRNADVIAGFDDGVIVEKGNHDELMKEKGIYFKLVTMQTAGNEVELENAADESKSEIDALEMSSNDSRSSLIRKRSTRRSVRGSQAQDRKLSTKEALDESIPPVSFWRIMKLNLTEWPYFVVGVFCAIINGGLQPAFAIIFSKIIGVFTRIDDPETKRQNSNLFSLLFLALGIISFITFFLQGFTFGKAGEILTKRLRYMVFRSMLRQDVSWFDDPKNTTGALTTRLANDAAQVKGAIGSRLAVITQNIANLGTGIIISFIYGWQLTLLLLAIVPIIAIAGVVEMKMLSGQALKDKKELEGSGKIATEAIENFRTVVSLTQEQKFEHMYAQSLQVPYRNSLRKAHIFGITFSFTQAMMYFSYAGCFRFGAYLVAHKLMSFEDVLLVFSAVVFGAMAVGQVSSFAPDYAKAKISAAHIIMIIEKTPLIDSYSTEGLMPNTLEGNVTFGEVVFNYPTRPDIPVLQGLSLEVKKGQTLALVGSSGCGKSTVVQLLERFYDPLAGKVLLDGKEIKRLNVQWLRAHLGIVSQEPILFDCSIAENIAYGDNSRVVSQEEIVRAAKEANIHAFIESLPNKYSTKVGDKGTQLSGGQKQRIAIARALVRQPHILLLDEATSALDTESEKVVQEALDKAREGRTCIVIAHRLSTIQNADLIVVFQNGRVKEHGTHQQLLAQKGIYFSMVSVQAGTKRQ

SMILES | inhibition (INH) [1] | recovery at 100 µM [2] [%] | inhibition (Homo sapiens) | Papp A→B at 100 µM [3] [×10⁻⁶ cm/s] | Activity [4] | Drug recovery (Caco-2) [%]
COc1ccc(CCN(C)CCCC(C#N)(c2ccc(OC)c(OC)c2)C(C)C)cc1OC (stereo not given) | Active | – | – | – | – | –
CC1(C)CCc2cc3c(=O)c4ccccc4oc3c(O)c2O1 | Active | 29.4 | Active | 14.2 | – | –
O=c1c2ccccc2oc2c(O)c(O)ccc12 [3,4-DIHYDROXYXANTHONE] | – | 53.6 | – | 19.4 | Active | –
O=c1c2ccccc2oc2ccc(O)c(O)c12 | – | 40.7 | – | 15.2 | Active | –
COc1cc(C2Oc3ccc4c(=O)c5ccccc5oc4c3OC2CO)ccc1O (stereo not given) | Active | – | Active | 14.4 | – | 164.7
